Our source for the EC50, melting point and IC50 values is patent publication US9586986B2, “Substituted 7-deazapurine ribonucleosides for therapeutic uses” (Institute of Organic Chemistry and Biochemistry ASCR, v.v.i., priority 2014, dated 2017).

Where two headings read alike, the source gives them in different places.

Data set [1] relates to HCV subtype 2A replicon in Huh-7 cells. Kind of data set: HCV sub-genomic reporter replicon assay, subtype 2A. Type of data set: cell-based. Particulars: Hepatitis C virus. The procedure:
(§1) Compounds were also tested in Huh-7 cells harboring sub-genomic reporter replicons derived from HCV subtypes 1B and 2A (ref.: Stuyver, L. J.; Whitaker, T.; McBrayer, T. R.; Hernandez-Santiago, B. I.; Lostia, S.; Tharnish, P. M.; Ramesh, M.; Chu, C. K.; Jordan, R.; Shi, J. X.; Rachakonda, S.; Watanabe, K. A.; Otto, M. J.; Schinazi, R. F. Antimicrob. Agents Chemother. 2003, 47, 244-254).
(In antiviral work, replicon cells carry a viral genome segment that copies itself.)

Data set [2] deals with HCV subtype 1B replicon in Huh-7 cells. The data set can be described thus: HCV sub-genomic reporter replicon assay, subtype 1B. The class given is cell-based. Particulars: Hepatitis C virus. The protocol: as §1
Another data set deals with HepG2. Kind of data set: XTT cytotoxicity assay, HepG2. Type of data set: cell-based. As to conditions: Homo sapiens, read-out: XTT, IC50 HepG2. The protocol: HL-60, Hela S3 and HepG2 cell lines (ATCC) were grown in RPMI-1640 or DMEM medium supplemented with 10% fetal calf serum, […] of streptomycin, 200 U/mL of penicillin G and 4 mM glutamine in a humidified atmosphere containing 5% CO2 at 37° C. Sensitivity of these cell lines to the synthesized compounds was assessed with the use of XTT cell proliferation kit II (Roche Diagnostics GmbH, Mannheim, Germany) according to the manufacturer's instructions. Briefly, cells were seeded in a 96-well plate at a density of 10,000 cells per well (90 μL). After 24 h, 10 μL of the tested compounds were added to the culture media at desired concentration range and incubated for 72 h. After that 50 μL of the XTT solution was added (1 mg/mL XTT+0.383 mg/mL N-methyl dibenzopyrazine methyl sulfate). The absorbance was recorded at 495 nm following a 2 h-incubation with the dye. IC50 values were determined by non-linear regression method using GraphPad Prism version 5.00 for Windows (GraphPad Software, La Jolla, Calif., USA).
For orientation: Tetrazolium dyes change colour on reduction, which living cells bring about.

The mark [3] stands for this setting: Huh-7 cells, HCV subtype 2A replicon, read-out: Replicon 2A EC50.
Where [4] appears, read: Huh-7 cells, HCV subtype 1B replicon, read-out: Replicon 1B EC50.
Setting [5] is: Huh-7, read-out: Replicon 2A EC50.
The mark [6] stands for this setting: Huh-7, read-out: Replicon 1B EC50.

`COc1ncnc2c1c(-c1ccccc1)cn2[C@@H]1O[C@H](CO)[C@@H](O)[C@H]1O` [Compound 1e, 4-Methoxy-5-phenyl-7-(β-D-ribofuranosyl)-7H-pyrrolo[2,3-d]pyrimidine] showed a melting point of 117 to 120 °C. In addition, the EC50 in data set [1] (setting [3]) was > 44 µM. Moreover, the EC50 in data set [2] (setting [4]) worked out at 21 µM. Also, in the data set on HepG2 (HepG2, 72 h incubation), the IC50 is > 20 µM.

Consider `COc1ncnc2c1c(-c1cc3ccccc3o1)cn2[C@@H]1O[C@H](CO)[C@@H](O)[C@H]1O` [Compound 1f, 5-(Benzofuran-2-yl)-4-methoxy-7-(β-D-ribofuranosyl)-7H-pyrrolo[2,3-d]pyrimidine], for which the EC50 came to 10.2 µM in data set [1] (setting [3]) and 2.64 µM in data set [2] (setting [4]). In addition, the IC50 in the data set on HepG2 (HepG2, 72 h incubation) was > 20 µM.

Turning to `C#Cc1cn([C@@H]2O[C@H](CO)[C@@H](O)[C@H]2O)c2ncnc(OC)c12` [Compound 1g, 5-Ethynyl-4-methoxy-7-(β-D-ribofuranosyl)-7H-pyrrolo[2,3-d]pyrimidine], the EC50 was > 44 µM in data set [1] (setting [3]) and 0.18 µM in data set [2] (setting [4]). The IC50 in the data set on HepG2 (HepG2, 72 h incubation) came out at 12.7 µM.

With `CSc1ncnc2c1c(-c1ccoc1)cn2[C@@H]1O[C@H](CO)[C@@H](O)[C@H]1O` [Compound 2b, 5-(Furan-3-yl)-4-methylsulfanyl-7-(β-D-ribofuranosyl)-7H-pyrrolo[2,3-d]pyrimidine], the melting point was 121 to 124 °C. Moreover, in data set [1] (setting [3]), the EC50 was > 44 µM. The half-maximal effective concentration (EC50) in data set [2] (setting [4]) was 4.72 µM. The IC50 with HepG2 (HepG2, 72 h incubation) is > 15 µM.

Turning to `CSc1ncnc2c1c(-c1cccs1)cn2[C@@H]1O[C@H](CO)[C@@H](O)[C@H]1O` [Compound 2c, 4-Methylsulfanyl-7-(β-D-ribofuranosyl)-5-(thiophen-2-yl)-7H-pyrrolo[2,3-d]pyrimidine], the 50% effective concentration (EC50) in data set [1] (setting [3]) is > 44 µM; in data set [2] (setting [4]) it was 5.42 µM. Moreover, in the data set with HepG2 (HepG2, 72 h incubation), the IC50 was > 20 µM.

For the compound `CSc1ncnc2c1c(-c1cc3ccccc3o1)cn2[C@@H]1O[C@H](CO)[C@@H](O)[C@H]1O` [Compound 2f, 5-(Benzofuran-2-yl)-4-methylsulfanyl-7-(β-D-ribofuranosyl)-7H-pyrrolo[2,3-d]pyrimidine], the EC50 was determined as 29.6 µM in data set [1] (setting [3]) and 8.03 µM in data set [2] (setting [4]). In the data set on HepG2 (HepG2, 72 h incubation), the IC50 is > 20 µM.

Take `C#Cc1cn([C@@H]2O[C@H](CO)[C@@H](O)[C@H]2O)c2ncnc(SC)c12` [Compound 2g, 5-Ethynyl-4-methylsulfanyl-7-(β-D-ribofuranosyl)-7H-pyrrolo[2,3-d]pyrimidine]: the EC50 is > 44 µM in data set [1] (setting [3]) and 0.21 µM in data set [2] (setting [4]). In addition, the half-maximal inhibitory concentration (IC50) with HepG2 (HepG2, 72 h incubation) is > 15 µM.

In the case of `C#Cc1cn([C@@H]2O[C@H](CO)[C@@H](O)[C@H]2O)c2ncnc(NC)c12` [Compound 3g, 5-Ethynyl-4-methylamino-7-(β-D-ribofuranosyl)-7H-pyrrolo[2,3-d]pyrimidine], the EC50 in data set [1] (setting [3]) is > 44 µM; in data set [2] (setting [4]) it was 0.35 µM. Also, the half-inhibitory concentration (IC50) in the data set with HepG2 (HepG2, 72 h incubation) was > 15 µM.

As to `CN(C)c1ncnc2c1c(-c1cccs1)cn2[C@@H]1O[C@H](CO)[C@@H](O)[C@H]1O` [Compound 4c, 4-Dimethylamino-7-(β-D-ribofuranosyl)-5-(thiophen-2-yl)-7H-pyrrolo[2,3-d]pyrimidine], the concentration giving a half-maximal response (EC50) in data set [1] (setting [3]) was > 44 µM; in data set [2] (setting [4]) it was 16.8 µM. The IC50 with HepG2 (HepG2, 72 h incubation) was > 20 µM.

Consider `CN(C)c1ncnc2c1c(-c1ccccc1)cn2[C@@H]1O[C@H](CO)[C@@H](O)[C@H]1O` [Compound 4e, 4-Dimethylamino-5-phenyl-7-(β-D-ribofuranosyl)-7H-pyrrolo[2,3-d]pyrimidine], for which the values for the concentration for a half-maximal effect (EC50) in data set [1] (setting [3]) and in data set [2] (setting [4]) were > 44 µM and 26.9 µM, respectively. In the data set with HepG2 (HepG2, 72 h incubation), the IC50 is > 20 µM.

On to `CN(C)c1ncnc2c1c(-c1cc3ccccc3o1)cn2[C@@H]1O[C@H](CO)[C@@H](O)[C@H]1O` [Compound 4f, 5-(Benzofuran-2-yl)-4-dimethylamino-7-(β-D-ribofuranosyl)-7H-pyrrolo[2,3-d]pyrimidine], for which the concentration giving a half-maximal response (EC50) in data set [1] (setting [3]) was > 44 µM; in data set [2] (setting [4]) it was 19.2 µM. In addition, the concentration for half-maximal inhibition (IC50) in the data set on HepG2 (HepG2, 72 h incubation) was > 20 µM.

Regarding `Cc1ncnc2c1c(-c1ccco1)cn2[C@@H]1O[C@H](CO)[C@@H](O)[C@H]1O` [Compound 5a, 5-(Furan-2-yl)-4-methyl-7-(β-D-ribofuranosyl)-7H-pyrrolo[2,3-d]pyrimidine], the figures for the EC50 in data set [1] (setting [3]) and in data set [2] (setting [4]) were 0.15 µM and 0.07 µM, respectively. Further, the half-inhibitory concentration (IC50) in the data set with HepG2 (HepG2, 72 h incubation) came to 0.3 µM.

Turning to `Cc1ncnc2c1c(-c1ccoc1)cn2[C@@H]1O[C@H](CO)[C@@H](O)[C@H]1O` [Compound 5b, 5-(Furan-3-yl)-4-methyl-7-(β-D-ribofuranosyl)-7H-pyrrolo[2,3-d]pyrimidine], the EC50 in data set [1] (setting [3]) is > 44 µM; in data set [2] (setting [4]), 4.43 µM. Further, the IC50 with HepG2 (HepG2, 72 h incubation) turned out to be 5.32 µM.

In the case of `Cc1ncnc2c1c(-c1ccsc1)cn2[C@@H]1O[C@H](CO)[C@@H](O)[C@H]1O` [Compound 5d, 4-Methyl-7-(β-D-ribofuranosyl)-5-(thiophen-3-yl)-7H-pyrrolo[2,3-d]pyrimidine], the results for the EC50 in data set [1] (setting [3]) and in data set [2] (setting [4]) were > 44 µM and 4.47 µM, respectively. Further, the 50% inhibitory concentration (IC50) in the data set with HepG2 (HepG2, 72 h incubation) amounted to 4.72 µM.

Regarding `Cc1ncnc2c1c(-c1ccccc1)cn2[C@@H]1O[C@H](CO)[C@@H](O)[C@H]1O` [Compound 5e, 4-Methyl-5-phenyl-7-(β-D-ribofuranosyl)-7H-pyrrolo[2,3-d]pyrimidine], the half-maximal effective concentration (EC50) in data set [1] (setting [3]) is > 44 µM; in data set [2] (setting [4]) it was 34.8 µM. In addition, in the data set with HepG2 (HepG2, 72 h incubation), the IC50 is > 20 µM.

In the case of `Cc1ncnc2c1c(-c1cc3ccccc3o1)cn2[C@@H]1O[C@H](CO)[C@@H](O)[C@H]1O` [Compound 5f, 5-(Benzofuran-2-yl)-4-methyl-7-(β-D-ribofuranosyl)-7H-pyrrolo[2,3-d]pyrimidine], the concentration for a half-maximal effect (EC50) is 40.2 µM in data set [1] (setting [3]) and 6.76 µM in data set [2] (setting [4]). Further, the IC50 in the data set on HepG2 (HepG2, 72 h incubation) was > 20 µM.

For `C#Cc1cn([C@@H]2O[C@H](CO)[C@@H](O)[C@H]2O)c2ncnc(C)c12` [Compound 5g, 5-Ethynyl-4-methyl-7-(β-D-ribofuranosyl)-7H-pyrrolo[2,3-d]pyrimidine], the EC50 in data set [1] (setting [3]) was found to be 21.6 µM; in data set [2] (setting [4]), 0.23 µM. Also, the half-inhibitory concentration (IC50) with HepG2 (HepG2, 72 h incubation) turned out to be 0.29 µM.

As for `COc1ncnc2c1ccn2[C@@H]1O[C@H](CO)[C@@H](O)[C@H]1O` [RC1, reference compound], the EC50 in data set [1] (setting [3]) was > 44 µM; in data set [2] (setting [4]) it was 43.2 µM. The 50% inhibitory concentration (IC50) with HepG2 (HepG2, 72 h incubation) is > 20 µM.

For the compound `CSc1ncnc2c1ccn2[C@@H]1O[C@H](CO)[C@@H](O)[C@H]1O` [RC2, reference compound], the concentration for a half-maximal effect (EC50) was > 44 µM in data set [1] (setting [5]) and 29.9 µM in data set [2] (setting [6]). Moreover, in the data set on HepG2 (HepG2, 72 h), the IC50 was > 20 µM.

Regarding `CNc1ncnc2c1ccn2[C@@H]1O[C@H](CO)[C@@H](O)[C@H]1O` [RC3, reference compound], the values for the EC50 in data set [1] (setting [3]) and in data set [2] (setting [4]) were > 44 µM and 0.82 µM, respectively. Further, the IC50 with HepG2 (HepG2, 72 h incubation) was > 20 µM.

With `CN(C)c1ncnc2c1ccn2[C@@H]1O[C@H](CO)[C@@H](O)[C@H]1O` [RC4, reference compound], the EC50 was determined as 0.97 µM in data set [1] (setting [3]) and 0.27 µM in data set [2] (setting [4]). Moreover, the IC50 in the data set on HepG2 (HepG2, 72 h incubation) is 1.81 µM.

As for `Cc1ncnc2c1ccn2[C@@H]1O[C@H](CO)[C@@H](O)[C@H]1O` [RC5, 4-Methyl-7-(β-D-ribofuranosyl)-7H-pyrrolo[2,3-d]pyrimidine, reference compound], the concentration giving a half-maximal response (EC50) in data set [1] (setting [5]) and in data set [2] (setting [6]) was 0.02 µM in each case. Moreover, the IC50 in the data set with HepG2 (HepG2, 72 h) is 0.06 µM.

Usually EC50 stands for the midpoint of the concentration-response curve. One may read the melting point as the temperature, or range, at which the solid turns liquid. Usually IC50 stands for the midpoint of a concentration-inhibition curve.
